Test results: article PMC8626775, “Anti-schistosomal activities of quinoxaline-containing compounds: From hit identification to lead optimisation” (European Journal of Medicinal Chemistry, 2021)
“And” between values parts separate entries of the source, which are not always exact repeats. Identical values can stand only once. Like-named read-outs stand apart in the source and are kept apart here.

How the values were obtained:
[1] = tested on: adult S. japonicum male worms; experiment: In vitro screening of S. japonicum adults at 100 nM (WormAssay motility, descriptors, severity score); type: cell-based, Schistosoma japonicum; details: for Effect on S. japonicum adult male worms: 5, 24, 48 and 72 h; for SEVERITY SCORES 5 h / SEVERITY SCORES 24 h / SEVERITY SCORES 48 h / DESCRIPTORS 48 h / SEVERITY SCORES 72 h / DESCRIPTORS 72 h: S. japonicum; for SEVERITY SCORES 5 h / SEVERITY SCORES 24 h / SEVERITY SCORES 48 h / SEVERITY SCORES 72 h: max = 4, one line per replicate; for DESCRIPTORS 48 h / DESCRIPTORS 72 h: one line per replicate
Experimental: (§1) For each species, parasite recovery involved reverse perfusion of the hepatic portal and mesenteric system using DMEM (Fisher Scientific). Parasites were washed six times with Basch 169 medium supplemented with 100 U/ml penicillin and 100 μg/ml streptomycin before manually distributing approximately 5 males per well (on occasion 1 or 2 females might also be present) of a 24-well plate (Corning Costar 3524). […] The next morning, a final concentration of 100 nM compound (in 1 μL DMSO) was added to each well and the final volume made up to 2 ml with Basch 169 medium supplemented with antibiotics and FBS. Each compound was tested in triplicate (except for some instances tested in duplicate). […] The phenotypic characterisation of compound effects focused on male worms due to the greater range of their motility characteristics that include flexing, bending, stretching, sucker walking and adherence, compared to the more sedentary female worms. In addition to descriptors, WormAssay, as adapted for the schistosome, was used to measure average worm motility per well [72, 73].

S. mansoni adult worms = experiment: S. mansoni adult worm motility screen (WormassayGP2), 72 h; type: cell-based, Schistosoma mansoni; details: Schistosoma mansoni
Text: Mice (Mus musculus HsdOLa:TO - Tuck Ordinary; Envigo, UK) were used for the mammalian-specific propagation of the S. mansoni life cycle. Experimental animals were infected with 4000 or 180 S. mansoni cercariae/mouse and perfused three- or seven-weeks post-infection to obtain S. mansoni juvenile or adult worms, respectively. Preparation steps following perfusion have been described previously. Briefly, the parasite material was washed three times with pre-warmed adult worm media (DMEM (Gibco, Paisley, UK) supplemented with 10% (v/v) Fetal Calf Serum (FCS, Gibco, Paisley, UK), 1% (v/v) L-glutamine (Gibco, Paisley, UK) and an antibiotic mixture (150 Units/ml penicillin and 150 μg/ml streptomycin; Gibco, UK)) to remove residual host contamination and incubated in a humidified environment containing 5% CO2 at 37 °C for at least 1 h.
For the evaluation of anti-schistosomal activity on the adult stage of the parasite, 7-wk old worms were transferred into 48 well tissue culture plates (1–3 worm pairs/well, in duplicate). […] DMSO (0.5%) and praziquantel (10 μM in 0.5% DMSO) were also included as negative and positive control treatments. Treated adult worms were incubated for 72 h in a humidified environment containing 5% CO2 at 37 °C. Parasite motility after compound treatment was assessed by a digital image processing-based system (WormassayGP2), modified after Wormassay. Following compound-parasite co-incubation, eggs were collected, fixed in formalin (10% v/v formaldehyde) and enumerated aiming to collect further information on any compound-induced effects on parasite fecundity and IVLE production.

HepG2 cells = experiment: HepG2 MTT cytotoxicity assay; details: for Selectivity Index (SI) Adult worms: HepG2 CC50 versus adult worm EC50; for Selectivity Index (SI) Somula: HepG2 CC50 versus schistosomula EC50
Experimental: Initially the cells were handled under sterile conditions and grown at 37 °C in a humidified atmosphere containing 5% CO2. Cytotoxicity was evaluated by way of a 3-(4, 5- dimethylthiazol-2-yl)-2,5-diphenyl tetrazolium bromide (MTT) assay as previously described. The cells were counted in a dual chamber counting slide using the BIORAD TC-10 Automated cell counter, seeded in a 96-well plate (Fisher Scientific, Loughborough, UK) at a density of 2 × 10^4 cells/well and incubated in an atmosphere of 5% CO2 at 37 °C. […] The absorbance readings (at 570 nm) of the soluble formazan crystals were recorded using PolarStar Omega plate reader (BMG-Labtech). […] The latter was used to calculate the selectivity index (SI) of the compounds presented herein.

S. mansoni schistosomula = S. mansoni schistosomula high-throughput phenotype and motility screen (Roboworm), 72 h; type: cell-based, Schistosoma mansoni; details: Schistosoma mansoni
Experimental: Cercariae derived from the NMRI ([…]) Puerto Rican strain (PR-1) of S. mansoni were shed from two Biomphalaria glabrata strains, the NMRI albino and pigmented outbred strains, under intensified lighting conditions (1 h of incubation at 26 °C). Cercariae were then mechanically transformed into schistosomula as previously described.
High-throughput screening (HTS) of selected compounds was conducted as previously described. Briefly, newly transformed schistosomula were distributed in a 384-well tissue culture plate (PerkinElmer, cat 6007460, seeding density of 120 parasites/well). Each compound (at a single concentration or two-fold titrations) was transferred into individual wells alongside the positive and negative controls (AUR at 10 μM final concentration in 0.625% DMSO and 0.625% DMSO, respectively). Schistosomula/compound co-cultures were then incubated at 37 °C for 72 h in a humidified atmosphere containing 5% CO2. Following the co-culture period, automatic assessment of compound-induced schistosomula motility and phenotypic changes were conducted with the high-content imaging platform Roboworm using the image analysis model previously described by Paveley et al..

[2] = tested on: Adult S. haematobium worms; experiment: In vitro screening of S. haematobium adults at 100 nM (WormAssay motility, descriptors, severity score); type: cell-based, Schistosoma haematobium
Experimental: as §1

[3] = Table 4, Series A, read-out: Anti-schistosomal activity EC50 Adult (nM) Motility
[4] = Table 2, 72 h, titrations 0.0095–5 μM, WormassayGP2, read-out: Activity on adult worms (EC50, μM - 72 h) Motility
[5] = 72 h, Table 2, average of phenotype and motility EC50, 72 h, read-out: Activity on schistosomula (EC50, μM - 72 h) Average
[6] = 72 h, Table 2, motility, 72 h, three replicate titrations (0.313–10 μM), read-out: Activity on schistosomula (EC50, μM - 72 h) M
[7] = 72 h, Table 2, phenotype, 72 h, three replicate titrations (0.313–10 μM), read-out: Activity on schistosomula (EC50, μM - 72 h) P
[8] = Table 4, Series A, read-out: Anti-schistosomal activity EC50 Schistosomula (μM) Motility
[9] = Table 4, Series A, read-out: Anti-schistosomal activity EC50 Schistosomula (μM) Phenotype

Row | Compound | EC50 (S. mansoni adult worms; [3]) [nM] | EC50 (S. mansoni adult worms; [4]) [nM] | EC50 (S. mansoni schistosomula; [5]) [µM] | EC50 (S. mansoni schistosomula; [6]) [µM] | EC50 (S. mansoni schistosomula; [7]) [µM] | EC50 (S. mansoni schistosomula; [8]) [µM] | EC50 (S. mansoni schistosomula; [9]) [µM] | Effect on S. japonicum adult male worms [1] | SEVERITY SCORES 5 h [1] | SEVERITY SCORES 24 h [1] | SEVERITY SCORES 48 h [1] | DESCRIPTORS 48 h [1] | SEVERITY SCORES 72 h [1] | DESCRIPTORS 72 h [1] | Selectivity Index (SI) Adult worms (HepG2 cells) | Selectivity Index (SI) Somula (HepG2 cells) | also measured
1 | O=[N+]([O-])c1ccc2nc(Nc3cccc(Cl)c3)c(Nc3cccc(Cl)c3)nc2c1 [Compound 25, N^2, N^3-bis(3-chlorophenyl)-6-nitroquinoxaline-2,3-diamine] | 12 | 12 | 1.26 | 1.3 | 1.22 | 1.3 | 1.22 | decreased motility starting at 48 h | 0 | 0 | 2 | S, on sides | 2 | S+, on sides | 47.99 | 0.46 | –
2 | CC(=O)Nc1ccc2nc(Nc3ccc(Cl)c(Cl)c3)c(Nc3ccc(Cl)c(Cl)c3)nc2c1 [Compound 22c, N-(2,3-bis((3,4-dichlorophenyl)amino)quinoxalin-6-yl)acetamide] | – | 704 | 2.91 | 2.79 | 3.04 | – | – | – | – | – | – | – | – | – | 6.52 | 1.57 | EC50 (S. mansoni adult worms; Table 5, Series C, read-out: Anti-schistosomal activity EC50 Adult (nM) Motility): 704 nM; EC50 (S. mansoni schistosomula; 72 h, read-out: EC50 on schistosomula (bounds and ranges given)): > 2 µM; EC50 (S. mansoni schistosomula; Table 5, Series C, read-out: Anti-schistosomal activity EC50 Schistosomula (μM) Motility): 2.79 µM; EC50 (S. mansoni schistosomula; Table 5, Series C, read-out: Anti-schistosomal activity EC50 Schistosomula (μM) Phenotype): 3.04 µM
3 | O=[N+]([O-])c1ccc2nc(Nc3ccc(Br)cc3)c(Nc3ccc(Br)cc3)nc2c1 [Compound 29, N2, N3-bis(4-bromophenyl)-6-nitroquinoxaline-2,3-diamine] | 122 | 122 | 0.71 | 0.65 | 0.78 | 0.83 | 1.06 | – | – | – | – | – | – | – | 32.52 | 5.55 | –

Second part, led by results:

Row | EC50 (S. mansoni adult worms; [3]) [nM] | EC50 (S. mansoni adult worms; [4]) [nM] | EC50 (S. mansoni schistosomula; [5]) [µM] | EC50 (S. mansoni schistosomula; [6]) [µM] | EC50 (S. mansoni schistosomula; [7]) [µM] | EC50 (S. mansoni schistosomula; [8]) [µM] | EC50 (S. mansoni schistosomula; [9]) [µM] | Compound | Effect on S. japonicum adult male worms [1] | SEVERITY SCORES 5 h [1] | SEVERITY SCORES 24 h [1] | SEVERITY SCORES 48 h [1] | DESCRIPTORS 48 h [1] | SEVERITY SCORES 72 h [1] | DESCRIPTORS 72 h [1] | Selectivity Index (SI) Adult worms (HepG2 cells) | Selectivity Index (SI) Somula (HepG2 cells) | also measured
4 | 11 | 11 | 0.72 | 0.54 | 0.89 | 0.54 | 0.89 | O=[N+]([O-])c1ccc2nc(Nc3ccc(F)c(C(F)(F)F)c3)c(Nc3ccc(F)c(C(F)(F)F)c3)nc2c1 [Compound 32, N2, N3-bis(4-fluoro-3-(trifluoromethyl)phenyl)-6-nitroquinoxaline-2,3-diamine] | – | – | – | – | – | – | – | 60.99 | 0.94 | –
5 | 382 | 382 | 1.77 | 1.4 | 2.14 | 1.4 | 2.14 | O=[N+]([O-])c1ccc2nc(Nc3ccc(F)cc3)c(Nc3ccc(F)cc3)nc2c1 [Compound 28, N2, N3-bis(4-fluorophenyl)-6-nitroquinoxaline-2,3-diamine] | – | – | – | – | – | – | – | – | – | Toxicity on HepG2 in words (HepG2 cells; 24 h): low toxicity
6 | 2.59 | 2.59 | 0.38 | 0.43 | 0.34 | 0.43 | 0.34 | O=[N+]([O-])c1ccc2nc(Nc3cccc(C(F)(F)F)c3)c(Nc3cccc(C(F)(F)F)c3)nc2c1 [Compound 30, 6-nitro-N2, N3-bis(3-(trifluoromethyl)phenyl)quinoxaline-2,3-diamine] | decreased motility starting at 48 h | 0 | 0 | 2 and 1 | S, on sides and S | 2 and 1 | S, on sides and S+ | 348 and 347.59 | 2.36 | Effect on S. haematobium adult worms ([2]; 5, 24, 48 and 72 h): relatively mild effects; SEVERITY SCORES 5 h ([2]; S. haematobium, 5 h, max = 4, one line per replicate): 0; SEVERITY SCORES 24 h ([2]; S. haematobium, 24 h, max = 4, one line per replicate): 0; SEVERITY SCORES 48 h ([2]; S. haematobium, 48 h, max = 4, one line per replicate): 1 and 2; DESCRIPTORS 48 h ([2]; S. haematobium, 48 h, one line per replicate): S-unc, on sides; SEVERITY SCORES 72 h ([2]; S. haematobium, 72 h, max = 4, one line per replicate): 2; DESCRIPTORS 72 h ([2]; S. haematobium, 72 h, one line per replicate): S-unc, on sides
